Laboratory results reported in publication PMC10971055 (International Journal of Molecular Sciences, 2024).
Read-outs that look alike come from different tables or passages of the source.

How the values were obtained:
ovine COX-1 = target: T1, ovine COX-1 (Ovis aries, UniProt P05979); assay: COX-1 inhibition, ELISA kit; type: biochemical; conditions: average of three determinations
T1 construct: purchased Cayman Chemical Item No. 560131
T1 sequence (P05979 25-600): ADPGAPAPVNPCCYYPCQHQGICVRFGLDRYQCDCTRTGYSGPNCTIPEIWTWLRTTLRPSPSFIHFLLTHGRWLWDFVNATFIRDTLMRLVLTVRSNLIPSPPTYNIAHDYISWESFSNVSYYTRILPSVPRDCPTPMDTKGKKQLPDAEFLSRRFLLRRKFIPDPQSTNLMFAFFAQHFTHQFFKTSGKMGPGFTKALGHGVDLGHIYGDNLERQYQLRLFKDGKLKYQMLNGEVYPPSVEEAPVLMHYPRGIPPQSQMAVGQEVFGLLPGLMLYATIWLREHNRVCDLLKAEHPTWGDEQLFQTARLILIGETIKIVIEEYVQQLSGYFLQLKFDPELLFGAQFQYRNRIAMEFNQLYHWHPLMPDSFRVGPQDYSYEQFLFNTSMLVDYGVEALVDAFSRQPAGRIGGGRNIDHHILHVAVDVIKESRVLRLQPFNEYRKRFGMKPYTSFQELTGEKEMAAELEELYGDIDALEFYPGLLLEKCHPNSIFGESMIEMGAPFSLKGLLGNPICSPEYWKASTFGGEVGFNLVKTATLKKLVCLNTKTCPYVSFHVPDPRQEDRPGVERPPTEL
Procedure: (§1) The compounds’ abilities were evaluated in vitro to inhibit ovine COX-1 and human recombinant COX-2 isozymes using ELISA [46].

human recombinant COX-2 = target: T2, human recombinant COX-2 (Homo sapiens, UniProt P35354); assay: COX-2 inhibition, ELISA kit; type: biochemical
T2 construct: purchased Cayman Chemical Item No. 560131
T2 sequence (P35354 18-604): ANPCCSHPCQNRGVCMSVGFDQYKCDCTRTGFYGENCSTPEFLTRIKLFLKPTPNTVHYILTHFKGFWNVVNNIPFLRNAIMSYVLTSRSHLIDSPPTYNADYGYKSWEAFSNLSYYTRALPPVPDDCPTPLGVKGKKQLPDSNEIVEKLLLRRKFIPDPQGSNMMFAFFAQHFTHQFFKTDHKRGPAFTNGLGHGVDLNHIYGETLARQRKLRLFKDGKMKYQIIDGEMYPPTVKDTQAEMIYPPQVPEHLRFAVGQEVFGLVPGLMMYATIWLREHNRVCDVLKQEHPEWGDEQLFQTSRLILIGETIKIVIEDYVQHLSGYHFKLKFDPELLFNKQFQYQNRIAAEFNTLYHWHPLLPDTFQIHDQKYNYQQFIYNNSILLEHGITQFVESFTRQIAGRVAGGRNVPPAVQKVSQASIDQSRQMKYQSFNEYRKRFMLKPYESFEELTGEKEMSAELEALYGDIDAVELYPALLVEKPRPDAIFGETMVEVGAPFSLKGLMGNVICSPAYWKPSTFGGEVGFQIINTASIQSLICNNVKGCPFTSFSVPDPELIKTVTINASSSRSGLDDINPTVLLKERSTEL
Procedure: as §1

COX-1 = assay: Western blotting of COX-1
fibroblast cells = assay: MTT test, cytotoxicity; type: cell-based; conditions: 24 h, read-out: IC50 against fibroblast cells
Procedure: The cytotoxicity of the IA was investigated during 24 h at various concentrations against fibroblast cell lines using the MTT test. […].
The MTT Reagent was purchased from Biospes (Biospes, China, Cat n#BAR1005-1), and used according to the manufacturer’s instructions. Twenty-four hours prior to the MTT experiment, breast cancer cell lines (MCF-7 Cell Line) were seeded at a concentration of 5 × 10^4 cells per well in 96-well microplates to facilitate microplate adherence. Various agent concentrations were administered to the cultured cells. The cells were treated with 10 μL of MTT solution, and 100 μL of serum-free medium was added to every well. The plate was kept at 37 °C for 4 h in a CO2 incubator. Then, each well received 100 μL of formazan diluent buffer. The plate was incubated at 37 °C for the entire night after being wrapped in foil and given a 15-min orbital shake. An ELISA plate reader (Stat Fax 2200, Awareness Technologies, Palm City, FL, USA) was used to measure color absorbance in the OD range of 450–630 nm.
For every sample, the mean of the three readings was computed. Cell survival was calculated at the very end using the following equation:(1) % of cell viability= Asample/Acontrol×100
Acontrol is the absorbance of the cell culture after treatment with formazan buffer and MTT without added any drug. […]

[1] = Solubility in different solvents; type: physicochemical; conditions: qualitative

| IC50 (ovine COX-1) | COX-2 S.I. (human recombinant COX-2; Selectivity index (COX-1 IC50/COX-2 IC50)) | IC50 (human recombinant COX-2; average of three determinations) | Solubility in solvents [1] | melting point | Structure (SMILES) | IC50 (COX-1) | IC50 (fibroblast cells; MTT test) | IC50 (fibroblast cells) |
| --- | --- | --- | --- | --- | --- | --- | --- | --- |
| 10.2 µM | 2.8 | 3.6 µM | soluble in alcohols, DMSO, and DMF | 135 °C | CC(=O)CC(C)=NNC(=O)C(C)c1ccc(CC(C)C)cc1 (stereo not drawn) [IA, (E)-2-(4-isobutylphenyl)-N′-(4-oxopentan-2-ylidene) propane hydrazide] | 0.946 µM | 3.43 µM | – |
| – | – | – | – | – | CC(C)Cc1ccc(C(C)C(=O)O)cc1 (stereo not drawn) [Ibuprofen, reference compound] | […] | – | 31.4 µM |
